Assay results taken from DBAASP.
Values after ≈ are worked out from the molar mass of the structure shown.

Key:
Experiment in all cases: ≥ marks a high value that may be exact or a test limit, other limits are often not marked, values filed in µg/mL are converted to µM
[1] = system: Staphylococcus aureus ATCC 700699
[2] = system: Pseudomonas aeruginosa ATCC BAA-427
[3] = system: Candida albicans ATCC 10231
Sporothrix schenckii = system: Sporothrix schenckii
[4] = system: Bacillus subtilis ATCC 6633
[5] = system: Staphylococcus aureus ATCC 700698
[6] = system: Staphylococcus aureus ATCC 29213
[7] = system: Escherichia coli ATCC 9637
[8] = system: Staphylococcus aureus ATCC BAA-44
[9] = system: Klebsiella pneumoniae ATCC 27736
Cryptococcus neoformans = system: Cryptococcus neoformans
[10] = system: Candida parapsilosis ATCC 22019
[11] = system: Staphylococcus aureus ATCC 25923
[12] = system: Staphylococcus aureus ATCC 33592
[13] = system: Salmonella enterica subsp. enterica serovar Typhimurium ATCC 14028
[14] = system: Escherichia coli ATCC 35218
[15] = system: Escherichia coli ATCC 25922
[16] = system: Salmonella enterica subsp. enterica serovar Typhi Vi+
[17] = system: Escherichia coli ATCC 11775
[18] = system: Staphylococcus aureus CPCC 100520
[19] = system: Candida albicans CPCC 400416
[20] = system: Escherichia coli CPCC 100521

Which results are given for `CC[C@H](C)[C@H](NC(=O)[C@H](C)NC(=O)[C@H](CCCCN)NC(=O)[C@@H]1CCCN1C(=O)[C@H](C)NC(=O)[C@H](Cc1cnc[nH]1)NC(=O)[C@@H](NC(=O)[C@H](C)NC(=O)CNC(=O)[C@H](CCCCN)NC(=O)[C@@H](NC(=O)[C@H](CC(C)C)NC(=O)[C@H](Cc1c[nH]c2ccccc12)NC(=O)CNC(=O)[C@H](Cc1ccccc1)NC(=O)[C@@H](N)Cc1ccccc1)[C@@H](C)CC)[C@@H](C)CC)C(=O)N[C@@H](Cc1cnc[nH]1)C(=O)NCC(=O)N[C@@H](CC(C)C)C(=O)N[C@H](C(=O)N[C@@H](Cc1cnc[nH]1)C(=O)N[C@@H](CCCN=C(N)N)C(=O)N[C@@H](CCCN=C(N)N)C(=O)N[C@@H](CCCN=C(N)N)C(=O)N[C@@H](Cc1cnc[nH]1)C(=O)O)[C@@H](C)CC` [FFGWLIKGAIHAPKAIHGLIHRRRH]?
MIC [1]: 1.6 µM (≈ 4.69 µg/mL); MIC [2]: 6.8 µM (≈ 19.9 µg/mL); MIC [3]: 13.6 µM (≈ 39.9 µg/mL); MIC (Sporothrix schenckii): 27.2 µM (≈ 79.8 µg/mL); MIC [4]: 3 µM (≈ 8.8 µg/mL); MIC [5]: 3 µM (≈ 8.8 µg/mL); MIC [6]: 1.6 µM (≈ 4.69 µg/mL); MIC [7]: 3 µM (≈ 8.8 µg/mL); MIC [8]: 1.6 µM (≈ 4.69 µg/mL); MIC [9]: 6.8 µM (≈ 19.9 µg/mL); MIC (Cryptococcus neoformans): 13.6 µM (≈ 39.9 µg/mL); MIC [10]: 6.8 µM (≈ 19.9 µg/mL); MIC [11]: 3 µM (≈ 8.8 µg/mL); MIC [12]: 1.6 µM (≈ 4.69 µg/mL)

Which results are given for `CC[C@H](C)[C@H](NC(=O)[C@@H]1CCCN1C(=O)[C@H](CCCN=C(N)N)NC(=O)[C@@H]1CCCN1C(=O)[C@H](Cc1cnc[nH]1)NC(=O)[C@H](CO)NC(=O)[C@@H](NC(=O)[C@@H]1CCCN1C(=O)[C@H](CCCCN)NC(=O)[C@@H]1CCCN1C(=O)[C@H](CO)NC(=O)[C@H](Cc1ccc(O)cc1)NC(=O)[C@@H]1CCCN1C(=O)[C@H](CCCN=C(N)N)NC(=O)[C@@H]1CCCN1C(=O)[C@H](CCCCN)NC(=O)CN)[C@@H](C)O)C(=O)N[C@@H](CCCN=C(N)N)C(=O)N[C@H](C(=O)O)C(C)C` [GKPRPYSPKPTSHPRPIRV]?
MIC [13]: 10 µM (≈ 21.7 µg/mL); MIC [14]: 2 µM (≈ 4.34 µg/mL); MIC [15]: 3.5 µM (≈ 7.6 µg/mL); MIC [16]: 10 µM (≈ 21.7 µg/mL); MIC [17]: 3 µM (≈ 6.51 µg/mL)

What does the source list for `CC[C@H](C)[C@H](N)C(=O)N[C@H](C(=O)NCC(=O)N1CCC[C@H]1C(=O)N[C@H](C(=O)N[C@@H](CC(C)C)C(=O)NCC(=O)N[C@@H](CC(C)C)C(=O)N[C@H](C(=O)NCC(=O)N[C@@H](CCCCN)C(=O)N[C@@H](C)C(=O)N[C@@H](CC(C)C)C(=O)NCC(=O)NCC(=O)N[C@@H](CC(C)C)C(=O)N[C@@H](CC(C)C)C(N)=O)C(C)C)C(C)C)[C@@H](C)CC` [IIGPVLGLVGKALGGLL]?
MIC [18]: ≥ 161 µM; MIC [19]: ≥ 161 µM; MIC [20]: ≥ 161 µM
